“Also recorded” adds a separate entry of the source.
How the values were obtained:
RIN 1046-38 β-cells = assay: Insulin secretion and intracellular insulin in RIN cells (ELISA); type: cell-based, rat; settings: for insulin release, R-JAG and Ex-4 together vs either alone: 6 h time point; for total intracellular insulin: 6 h treatment; for insulin release into the medium: time course
Description: (§1) Insulin assays and cell turnover studies. Insulin secretion assays were performed and intracellular insulin was extracted as described (Wang, Y. et al., J. Clin. Invest., 99:2883-2889 (1997)), followed by insulin quantification using an ELISA kit (Crystal Chem). Cells were treated for 8 h as indicated and pulsed with [^3H]thymidine (PerkinElmer Life Sciences) at 37° C., followed by lysis of the cells and [^3H] counting (He, et al., J Biol Chem, 278:27096-27104 (2003)).

RIN cells [1] = assay: [3H]thymidine uptake (β-cell proliferation) in RIN cells; type: cell-based, rat; settings: 8 h treatment
Description: as §1

C57/BL6 mouse islets = assay: Immunoblotting for IRS2 and PDX-1 in C57/BL6 mouse islets treated for 8 h; type: cell-based; settings: for PDX-1 levels: islets
Description: (§2) Islet isolation, cell culture and treatments. Adult rat (Sprague-Dawley) and mouse (C57/BL6) islets were isolated by collagenase P digestion and cultured overnight in M199 medium (5 mM glucose). RIN 1046-38 β-cells were cultured as outlined previously (Wang, et al., Endocrinology, 142:1820-1827 (2001)). Isolated human islets came from David Harlan, Transplant Section, NIDDK. Ex-4, GLP-1, CCK (all used at concentrations previously shown to cause maximum insulin release), Ex and the γ-secretase inhibitor, L-685,458, were obtained from Bachem. H89 was from Calbiochem, insulin was from Sigma. The Jagged peptides, R-JAG […] (SEQ ID NO:1), JAG-1 […] (SEQ ID NO:2), and scrambled control peptide without agonist activity, sc-Jagged […] (Nickoloff, et al., Cell Death Differ, 9842-855 (2002)) (SEQ ID NO:3), were synthesised by New England Peptide Inc.
(§3) Cell extracts, immunoblotting and RT-PCR. Cytosolic and nuclear cell extracts were prepared using the NE-PER Nuclear and Cytoplasmic Extraction Reagents (Pierce) in accordance with the manufacturer's instructions. Whole cell extracts were isolated as described (Wang, et al., Endocrinology, 142:1820-1827 (2001)). Cell extracts were separated by Tris-glycine (10%, 4-12%) PAGE (Invitrogen) and immunoblofted as described (Wang, et al., Endocrinology, 142:1820-1827 (2001)) using the following antibodies: rabbit anti-Notch1 (1:5,000), rabbit anti-IRS2 (1:1,000), both from Upstate Biotechnology, rabbit N-terminal anti-PDX-1 (1:10,000, from Joel Habener (Stanojevic, et al., Endocrinology, 145:2918-2928 (2004)). Total RNA was extracted using Triazol (Invitrogen) according to the manufacturer's instructions. RT-PCR was performed using the Qiagen OneStep RT-PCR kit. See Table 2 for primer sequences and annealing temperatures. Each target gene was amplified over 35 cycles.

Notch-1 (NICD) [2] = assay: NICD in islet nuclei of wild-type and GLP-1R null mice after intraperitoneal treatment; type: in vivo, mouse; settings: fasted, 1 nmol/kg IP
Description: (§4) Animal Protocols. Wild-type and GLP-1R −/− mice (Scrocchi, L. A. et al. Nat. Med., 2:1254-1258 (1996)) were injected intraperitoneally with Ex-4 (1 nmol/kg) or glucose (1 g/kg) after overnight fast and their pancreata excised. Animal protocols were approved by the NIA Animal Care and Use Committee. RIN cells were permeabilized in Triton-X (0.1%) on ice and blocked for 1 h at room temperature in 3% BSA and 0.1% Tween in PBS. They were incubated overnight at 4° C. with the primary antibody, washed in PBS and incubated with fluorescent labelled secondary antibody for 1 h, washed and mounted with fluorescence mounting medium (Vector Laboratories). Mouse sections (FIG. 9) for indirect immunofluorescence were antigen-retrieved, processed in the same manner as the cells and stained with anti-Notch-1. Indirect immunofluorescent staining was imaged using a Zeiss LSM-410 inverted microscope. AlexaFluor antibodies (Molecular Probes; Eugene, Oreg.) were excited with the 488-nm line of a krypton-argon laser and recorded at the presence of emission filter BP515-565 nm. The microscope objective was a Zeiss 63×NA 1.4 oil immersion and the confocal pinhole was set to obtain spatial resolution of […] in the horizontal plane and […] in the axial dimension.

γ-secretase = molecular target: T1, γ-secretase (Rattus norvegicus, UniProt P97887); assay: γ-secretase activity assay (Notch ΔE-GVP / UAS-luciferase reporter) in RIN cells; type: cell-based; settings: for effect on Ex-4-activated γ-secretase cleavage / UAS promoter activation: RIN cells transfected with Notch ΔE-GVP
T1 construct: endogenous in cells; host or cells: RIN 1046-38 rat β-cells
Description: Transfections and Luciferase assays. The rat insulin-I promoter linked to the luciferase reporter plasmid pGL3 (Ins-1-luc) was obtained from Michael Freemark (Fleenor and Freemark, Endocrinology, 142:2805-2810 (2001)), and both the Notch ΔE-GVP plasmid and UAS responsive reporter gene construct MH100 were from Johan Lundkvist (Karlstrom, et al., J Biol Chem, 277:6763-6766 (2002)). For the insulin reporter gene assay, RIN cells in 35 mm dishes were co-transfected with 0.8 μg ins-1-luc plasmid and 0.7 μg of pCMV-β-galactosidase using 8 μl of Polyfect (Qiagen). For the γ-secretase activity assay RIN cells in 12 well plates were co-transfected with 30 ng of pCMV-β-galactosidase, 200 ng of MH100, 100 ng Notch ΔE-GVP plasmids for each well using Lipofectamine PLUS (Invitrogen). The transfected cells were allowed to recover for 24-48 h in medium with serum and subsequently incubated in insulin secretion assay buffer (for the insulin promoter assay) or in medium without serum (for the γ-secretase assay) with or without Ex-4 and inhibitors. Ins-1-luc and Notch ΔE-GVP activities were measured using assay system kits from Promega according to the manufacturer's instructions using a Berthord LB 9501 luminometer. The luciferase values were normalized to β-galactosidase measured using the luminometer for lysates from 35 mm dishes and an ELISA plate reader (Spectra Max Plus, Molecular Devices) for lysates from 12 well plates.

Notch-1 (NICD) [3] = assay: NICD nuclear translocation in RIN cells (indirect immunofluorescence, immunoblot of nuclear extracts); type: cell-based, rat; settings: for effect on Ex-4-mediated translocation of NICD: H89 10 μM, L-685,458 pretreatment for 2 h
Description: as §2, §3
as §4, with “RIN” for “Animal Protocols. Wild-type and GLP-1R −/− mice (Scrocchi, L. A. et al. Nat. Med., 2:1254-1258 (1996)) were injected intraperitoneally with Ex-4 (1 nmol/kg) or glucose (1 g/kg) after overnight fast and their pancreata excised. Animal protocols were approved by the NIA Animal Care and Use Committee. RIN”

RIN cells [4] = assay: RT-PCR and immunoblotting of whole RIN cell extracts (insulin, IRS2, PDX-1, Notch-1); type: cell-based, rat
Description: as §3, with “Each target gene was amplified over 35 cycles.” left out

Rat islets = assay: Rat islets: real time PCR and intracellular insulin after R-JAG; type: cell-based
Description: Rat islets (80) were pre-incubated for 2 periods of 30 min in the glucose-free buffer in a 37° C. humidified air incubator. […] At the end of the experiment, islets were centrifuged and any residual medium removed and stored −20° C. for quantification of insulin released. The pellet was suspended in ice cold acid-ethanol (500 μl) and homogenized. After centrifugation of the homogenate (1,400 g, 4° C.) the supernatant was collected for measurement of intracellular insulin using the Rat insulin ELISA kit from Crystal Chem. Inc. (Chicago, Ill.). The pellet was lysed with 0.2 ml formic acid and saved at […] for analysis of protein by the Bradford method (Bio-Rad Laboratories, Inc. Richmond, Calif.). A control condition with insulin secretion assay buffer containing just 6 mM glucose was used. Insulin values were normalized to protein content.
Reverse transcription. DNA-free RNA was isolated using the Triazol extraction method (Invitrogen; Carlsbad, Calif.) following the manufacturer's protocol. DNAse I treatment and inactivation, and reverse transcription reaction primed with random sequence oligonucleotides were performed using Ambion instruction manual and Cells-to-cDNA II kits components in the I-Cycler thermocycler from BioRad. As a control, a mock reverse transcription containing all RT reagents except the Reverse Transcriptase, which was substituted with water, was used.
Real Time PCR. Real time PCR reactions were performed using the ABI PRISM™ 7700 Sequence Detection Systems (Applied Biosystems; Valencia, Calif.) and the SYBER Green kit from Applied Biosystems. All PCR reactions were performed in triplicate using the SYBER Green master mix (12.5 μl) from Applied Biosystems, 1 μg of cDNA, 2.5 μl of each 0.5 μM primer and water for a 25 μl reaction. Cycling parameters for amplifications of target genes were (95° C. for 10 min, at 94° C. for 15 seconds, 60° C. for 1 min)×40 cycles. The target gene copy number in unknown samples was quantified by measuring the threshold cycle CT and by using the standard curve to determine the starting copy number. The β-actin gene was an endogenous control. Final results were expressed as n-fold differences relative to untreated controls.

Exendin-4 [Ex-4]
insulin release, R-JAG and Ex-4 together vs either alone (RIN 1046-38 β-cells; RIN cells): greater that either alone
total intracellular insulin (RIN 1046-38 β-cells; RIN cells): increased
insulin release into the medium (RIN 1046-38 β-cells; RIN cells): acutely increased
[3H]thymidine uptake, increase above glucose treatment (RIN cells [1]): increased
PDX-1 levels (C57/BL6 mouse islets): increased
NICD translocation to islet cell nuclei (Notch-1 (NICD) [2]): caused NICD translocation to nuclei of practically all islet cells; also recorded: increased NICD in all islet cells
increase in transcriptional activation of the UAS promoter (cleavage of Notch ΔE-GVP) (γ-secretase; RIN cells transfected with Notch ΔE-GVP and MH100): at least 20 fold

scrambled Jagged peptide: scrambled control peptide without agonist activity, RCGPDCFDNYGRYKYCF (SEQ ID NO:3)
[3H]thymidine uptake, increase above glucose treatment (RIN cells [1]): no effect

insulin
nuclear NICD / NICD translocation (Notch-1 (NICD) [3]; RIN cells treated with secretagogues): equivalent to control samples

R-JAG: Jagged-related peptide, Notch receptor binding fragment, CDDYYYGFGCNKFGRPRDD (SEQ ID NO:1)
trypan blue exclusion (cell death) (RIN 1046-38 β-cells; RIN cells treated with R-JAG): continued to exclude trypan blue
insulin secretion, replenishment every two hours vs single treatment (RIN 1046-38 β-cells; RIN cells, 6 h): greater effect
insulin release, R-JAG and Ex-4 together vs either alone (RIN 1046-38 β-cells; RIN cells): greater that either alone
total intracellular insulin (RIN 1046-38 β-cells; RIN cells): significant increase
insulin release into the medium (RIN 1046-38 β-cells; RIN cells): elevated insulin release into the medium after 2.5 h had elapsed
[3H]thymidine uptake, increase above glucose treatment (RIN cells [1]): 30%
PDX-1 levels (RIN cells [4]): increased
IRS2 and insulin mRNA with replenishing every 2 h (RIN cells [4]; RT-PCR): sustained elevations
IRS-2 mRNA (RIN cells [4]; RT-PCR): increased
insulin mRNA levels (RIN cells [4]; RT-PCR): increased
time course of IRS2 and insulin mRNA after single treatment (RIN cells [4]; RT-PCR 27 cycles, normalized to GAPDH): diminished after 8 h
IRS-2 protein levels (RIN cells [4]; immunoblot): increased
total Notch1 levels (RIN cells [4]; immunoblot): increased
PDX-1 levels (C57/BL6 mouse islets): increased
increase in IRS-2 protein levels (C57/BL6 mouse islets; mouse islets of Langerhans): 1.5 fold
intra-cellular insulin (Rat islets; R-JAG 10 μM, glucose 6 mM): increase
IRS-2 transcription (Rat islets; over 2 and 6 hours): increases
PDX-1 transcription (Rat islets; over 2 and 6 hours): increases
insulin transcription (Rat islets; over 2 and 6 hours): increases

O=S(=O)(NCCNC/C=C/c1ccc(Br)cc1)c1cccc2cnccc12 [H89]
effect on glucose-mediated NICD translocation (Notch-1 (NICD) [3]; RIN cells): prevented
effect on Ex-4-mediated translocation of NICD (Notch-1 (NICD) [3]; RIN cells): diminished
effect on Ex-4-activated γ-secretase cleavage / UAS promoter activation (γ-secretase): greatly diminished; also recorded: abrogated; also recorded: blocked

Exendin 9-39
NICD nuclear localization with GLP-1 (50 nM) in conjunction with the GLP-1R antagonist (Notch-1 (NICD) [3]; RIN cells, antagonist 500 nM): equivalent to glucose treatment alone

CC(C)C[C@H](NC(=O)[C@H](Cc1ccccc1)C[C@@H](O)[C@H](Cc1ccccc1)NC(=O)OC(C)(C)C)C(=O)N[C@@H](Cc1ccccc1)C(N)=O [L-685,458]
effect on Ex-4-mediated translocation of NICD (Notch-1 (NICD) [3]; RIN cells): inhibited
effect on Ex-4-mediated increase in IRS2 levels (C57/BL6 mouse islets; C57/BL6 mouse islets): diminished; also recorded: decreased
effect on R-JAG-mediated increases in IRS2 levels (C57/BL6 mouse islets; C57/BL6 mouse islets): prevented; also recorded: completely abrogated
effect on Ex-4-activated γ-secretase cleavage / UAS promoter activation (γ-secretase): greatly diminished; also recorded: abrogated; also recorded: blocked

From patent publication US7888116B2, “Uses of notch receptors, notch ligands, and notch modulators in methods related to metabolic diseases” (The United States of America as represented by the …, priority 2005, dated 2011)
